Assay results as given in PubChem BioAssay AID256 (DTP/NCI, 2004).
Several values for one entry are separate records, joined by “and”; a condition that tells them apart may be missing. Identical values can stand only once. Toxic doses and inconclusive results are not listed.

System: CD2F1 mice, L1210 leukemia ip, survival T/C
Assay: NCI In Vivo Anticancer Drug Screen. Data for tumor model L1210 Leukemia (intraperitoneal) in CD2F1 (CDF1) mice
Conditions: higher = longer survival
How it was run: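 Activity against a transplanted murine tumor was judged by comparing the compound group with a vehicle group. The outcome in the treated animals was divided by that in the controls.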

With `COc1cc(NCc2ccc3nc(N)nc(N)c3c2C)cc(OC)c1OC` the T/C (endpoint: mean survival time, dose: 0.62 mg/kg/injection, schedule: Q01DX009 (ip), vehicle: sodium bicarbonate) was 102 % of control, the T/C (endpoint: mean survival time, dose: 1.25 mg/kg/injection, schedule: Q01DX009 (ip), vehicle: sodium bicarbonate) was 102 % of control and 106 % of control and the T/C (endpoint: mean survival time, dose: 1.87 mg/kg/injection, schedule: Q04DX003 (ip), vehicle: sodium bicarbonate) was 106 % of control. For the same compound, the T/C (endpoint: mean survival time, dose: 2.5 mg/kg/injection, schedule: Q01DX009 (ip), vehicle: sodium bicarbonate) was 110 % of control and 112 % of control, the T/C (endpoint: mean survival time, dose: 3.11 mg/kg/injection, schedule: Q01DX009 (ip), vehicle: other) was 118 % of control and the T/C (endpoint: mean survival time, dose: 3.75 mg/kg/injection, schedule: Q04DX003 (ip), vehicle: sodium bicarbonate) was 96 % of control. For the same compound, the T/C (endpoint: mean survival time, dose: 5.0 mg/kg/injection, schedule: Q01DX009 (ip), vehicle: sodium bicarbonate) was 121 % of control and 110 % of control, the T/C (endpoint: mean survival time, dose: 5.18 mg/kg/injection, schedule: Q01DX009 (ip), vehicle: other) was 121 % of control and the T/C (endpoint: mean survival time, dose: 5.27 mg/kg/injection, schedule: Q01DX009 (ip), vehicle: Klucel (hydroxypropylcellulose) (HPC)) was 122 % of control. For the same compound, the T/C (endpoint: mean survival time, dose: 7.05 mg/kg/injection, schedule: Q01DX009 (ip), vehicle: water) was 117 % of control, the T/C (endpoint: mean survival time, dose: 7.5 mg/kg/injection, schedule: Q04DX003 (ip), vehicle: sodium bicarbonate) was 110 % of control and the T/C (endpoint: mean survival time, dose: 10.5 mg/kg/injection, schedule: Q01DX009 (ip), vehicle: water) was 123 % of control. The T/C (endpoint: mean survival time, dose: 15.0 mg/kg/injection, schedule: Q04DX003 (ip), vehicle: sodium bicarbonate) was 112 % of control, the T/C (endpoint: mean survival time, dose: 17.8 mg/kg/injection, schedule: Q01DX009 (ip), vehicle: Klucel (hydroxypropylcellulose) (HPC)) was 174 % of control and the T/C (endpoint: mean survival time, dose: 20.0 mg/kg/injection, schedule: Q01DX009 (ip), vehicle: sodium bicarbonate) was 156 % of control and 160 % of control. For the same compound, the T/C (endpoint: mean survival time, dose: 24.0 mg/kg/injection, schedule: Q01DX009 (ip), vehicle: other) was 152 % of control, the T/C (endpoint: mean survival time, dose: 26.7 mg/kg/injection, schedule: Q01DX009 (ip), vehicle: Klucel (hydroxypropylcellulose) (HPC)) was 191 % of control and the T/C (endpoint: mean survival time, dose: 30.0 mg/kg/injection, schedule: Q04DX003 (ip), vehicle: sodium bicarbonate) was 114 % of control. The T/C (endpoint: mean survival time, dose: 40.0 mg/kg/injection, schedule: Q01DX009 (ip), vehicle: Klucel (hydroxypropylcellulose) (HPC)) was 216 % of control, the T/C (endpoint: mean survival time, dose: 40.0 mg/kg/injection, schedule: Q01DX009 (ip), vehicle: other) was 167 % of control and the T/C (endpoint: mean survival time, dose: 40.0 mg/kg/injection, schedule: Q01DX009 (ip), vehicle: sodium bicarbonate) was 110 % of control. The T/C (endpoint: mean survival time, dose: 60.0 mg/kg/injection, schedule: Q01DX009 (ip), vehicle: Klucel (hydroxypropylcellulose) (HPC)) was 122 % of control, the T/C (endpoint: mean survival time, dose: 80.0 mg/kg/injection, schedule: Q01DX009 (ip), vehicle: water) was 151 % of control and the T/C (endpoint: mean survival time, dose: 90.0 mg/kg/injection, schedule: Q01DX009 (ip), vehicle: Klucel (hydroxypropylcellulose) (HPC)) was 116 % of control. The T/C (endpoint: median survival time, dose: 2.5 mg/kg/injection, schedule: Q01DX009 (ip), vehicle: sodium bicarbonate) was 109 % of control, the T/C (endpoint: median survival time, dose: 5.0 mg/kg/injection, schedule: Q01DX009 (ip), vehicle: Klucel (hydroxypropylcellulose) (HPC)) was 119 % of control and the T/C (endpoint: median survival time, dose: 5.0 mg/kg/injection, schedule: Q01DX009 (ip), vehicle: sodium bicarbonate) was 117 % of control and 124 % of control. The T/C (endpoint: median survival time, dose: 6.25 mg/kg/injection, schedule: Q01DX009 (ip), vehicle: water) was 124 % of control, the T/C (endpoint: median survival time, dose: 7.5 mg/kg/injection, schedule: Q01DX005 (ip), vehicle: Klucel (hydroxypropylcellulose) (HPC)) was 150 % of control and the T/C (endpoint: median survival time, dose: 10.0 mg/kg/injection, schedule: Q01DX009 (ip), vehicle: Klucel (hydroxypropylcellulose) (HPC)) was 151 % of control. For the same compound, the T/C (endpoint: median survival time, dose: 15.0 mg/kg/injection, schedule: Q01DX005 (ip), vehicle: Klucel (hydroxypropylcellulose) (HPC)) was 167 % of control, the T/C (endpoint: median survival time, dose: 18.0 mg/kg/injection, schedule: Q01DX009 (ip), vehicle: distilled water + Tween-80) was 153 % of control and the T/C (endpoint: median survival time, dose: 20.0 mg/kg/injection, schedule: Q01DX009 (ip), vehicle: Klucel (hydroxypropylcellulose) (HPC)) was 172 % of control. The T/C (endpoint: median survival time, dose: 20.0 mg/kg/injection, schedule: Q01DX009 (ip), vehicle: sodium bicarbonate) was 152 % of control and 157 % of control, the T/C (endpoint: median survival time, dose: 25.0 mg/kg/injection, schedule: Q01DX009 (ip), vehicle: water) was 157 % of control and the T/C (endpoint: median survival time, dose: 27.0 mg/kg/injection, schedule: Q01DX009 (ip), vehicle: distilled water + Tween-80) was 165 % of control. For the same compound, the T/C (endpoint: median survival time, dose: 30.0 mg/kg/injection, schedule: Q01DX005 (ip), vehicle: Klucel (hydroxypropylcellulose) (HPC)) was 166 % of control and 175 % of control, the T/C (endpoint: median survival time, dose: 40.0 mg/kg/injection, schedule: Q01DX009 (ip), vehicle: distilled water + Tween-80) was 158 % of control and 168 % of control and the T/C (endpoint: median survival time, dose: 40.0 mg/kg/injection, schedule: Q01DX009 (ip), vehicle: sodium bicarbonate) was 168 % of control and 181 % of control. For the same compound, the T/C (endpoint: median survival time, dose: 44.0 mg/kg/injection, schedule: Q01DX009 (ip), vehicle: water) was 154 % of control, the T/C (endpoint: median survival time, dose: 50.0 mg/kg/injection, schedule: Q01DX009 (ip), vehicle: water) was 157 % of control and 165 % of control and the T/C (endpoint: median survival time, dose: 60.0 mg/kg/injection, schedule: Q01DX005 (ip), vehicle: Klucel (hydroxypropylcellulose) (HPC)) was 184 % of control and 185 % of control. For the same compound, the T/C (endpoint: median survival time, dose: 60.0 mg/kg/injection, schedule: Q01DX009 (ip), vehicle: distilled water + Tween-80) was 160 % of control and 182 % of control, the T/C (endpoint: median survival time, dose: 80.0 mg/kg/injection, schedule: Q01DX009 (ip), vehicle: Klucel (hydroxypropylcellulose) (HPC)) was 112 % of control and the T/C (endpoint: median survival time, dose: 90.0 mg/kg/injection, schedule: Q01DX009 (ip), vehicle: distilled water + Tween-80) was 118 % of control. For the same compound, the T/C (endpoint: median survival time, dose: 100.0 mg/kg/injection, schedule: Q01DX009 (ip), vehicle: water) was 173 % of control and 184 % of control and the T/C (endpoint: median survival time, dose: 120.0 mg/kg/injection, schedule: Q01DX005 (ip), vehicle: Klucel (hydroxypropylcellulose) (HPC)) was 236 % of control.
